Data: patent US20140051650A1, “VAGINAL COMPOSITIONS BASED ON ALKYL POLYGLUCOSIDES” (EFFIK S.A., priority 2011, published 2014)
≈ marks a conversion by molar mass, not a printed value. Like-named read-outs stand apart in the source and are kept apart here.

Tests used:
Streptococcus agalactiae [1] = assay: Minimum Bactericidal Concentration (MBC) in liquid medium against Streptococcus agalactiae; format: cell-based
Method: Three Streptococcus agalactiae strains isolated from vaginal-rectal buffers during the prenatal check-ups were used for the assay. The strains were named “strain 2”, “strain 10” and “strain 11”. Isolation was carried out on a blood agar medium and identification was obtained through biochemical tests of the API 20 Strep (Bio-Mérieux) system and through the identification of the Lancefield group.
The experiments were also carried out on a Streptococcus agalactiae ATCC 12386 strain.
“Brain Heart Infusion broth” (BHIb, Becton Dickinson) medium was used for the Streptococcus agalactiae culture, “Mueller-Hinton broth” (M-Hb) medium after adding 2% “laked” horse blood and the “Mueller-Hinton agar” (M-Ha) medium with addition of defibrinated horse blood at 5% (Oxoid) were used for the antimicrobial activity assays.
The Streptococcus agalactiae strains were cultured in BHIb broth for 24 hours at 37° C. Immediately before the assay, the bacterial suspensions were diluted up to obtaining turbidity equivalent to 0.5 McFarland standard. 50 μl of a further 1:100 dilution in broth+blood at 2% were distributed in the wells of the microtitre plates. The presumed titre of the inoculum carried out through this procedure is of about 5×10^4 ufc (units forming colony)/well.
The bacterial cultures were also diluted serially according to a value 10 (up to a dilution value equivalent to 10^−7) and an aliquot of 0.1 ml of each dilution was double streaked on M-Ha +blood 5% for determining the actual titre to be used, subsequently, to determine the MBC (Minimum Bactericidal Concentration).
The assay was carried out in 96-well microtitre plates. 50 μl of M-Hb at normal concentration were deposited in the first well of each of the 5 rows. Starting from the first well of each row, […] volumes were transferred from each well to the subsequent one 10 times, thus obtaining a series of dilutions after doubling. The 12th well of each row was kept substance-free as a positive control of the bacterial growth.
Subsequently, 50 μl of bacterial inoculum of M-Hb+double concentration blood (4%) were deposited in all wells of the plate, except for the 11th of each row. Only M-Hb+double concentration blood but bacteria-free, were deposited in the 11th well, with the aim of providing negative control for each row. The described scheme was used for the assay of each of the three Streptococcus agalactiae strains.
(§1) Immediately after determining the value of the MIC for each substance, a volume equivalent to 50 μl was taken from each well and streaked on the surface of plates containing the solid medium. The plates were subsequently incubated at the conditions indicated for each microbial strain. After incubation at 37° C. for 24 hours, the number of colonies grown on the medium surface was counted thus determining the number of bacteria that survived after 24 hours of contact with the substance at the concentration present in the well. The MBC value defined as the lowest concentration of each substance capable of reducing the bacterial load by 99.9% in the previously defined assay conditions was determined through comparison between the number of bacteria that survived in each well and that of the bacterial inoculum deposited initially.

[2] = test system: Neisseria gonorrhoeae ATCC 43069; assay: MBC against Neisseria gonorrhoeae; format: cell-based; settings: substance alone
Method: as §1, with “The Gardnerella vaginalis ATCC 14018 strain, the Neisseria gonorrhoeae ATCC 43069 strain and the Candida albicans ATCC 10231 strain were also used for the experiment. [table] The other assayed microbial strains were cultured in the liquid media and in the incubation conditions specified in table A, following the operating procedure described above. Immediately” for “Immediately”

[3] = test system: Neisseria gonorrhoeae ATCC 43069; assay: MIC against Neisseria gonorrhoeae; format: cell-based; settings: substance alone
Method: (§2) The Gardnerella vaginalis ATCC 14018 strain, the Neisseria gonorrhoeae ATCC 43069 strain and the Candida albicans ATCC 10231 strain were also used for the experiment.
(§3) The other assayed microbial strains were cultured in the liquid media and in the incubation conditions specified in table A, following the operating procedure described above.
(§4) The assay was carried out in 96-well microtitre plates. 50 μl of substance solution at the “mother” concentration alongside 50 μl of liquid medium at double concentration were deposited in the first well of each of the 8 rows while 50 μl of liquid medium at normal concentration were deposited in the remaining 11 wells. Starting from the first well of each row, 50 μl volumes were transferred from each well to the subsequent one 10 times, thus obtaining a series of 11 dilutions after doubling. The 12th well of each row was kept substance-free as a function of positive control of the bacterial growth.
(§5) Subsequently, 50 μl of diluted bacterial inoculum as specified previously were deposited in all wells of the plate, except for the 11th of each row. Only the liquid medium at single concentration but bacteria-free, was deposited in the 11th well, with the aim of providing negative control for each row. The described scheme was used for the assay with each of the assayed microbial strains. […]

Streptococcus agalactiae [4] = assay: Minimum Inhibitory Concentration (MIC) on agarised medium against Streptococcus agalactiae; format: cell-based
Method: The assay was carried out on an M-Ha medium+blood at 5%. The medium was prepared at a concentration 33% higher with respect to the final one used in the test corresponding to the one indicated by the supplier. After sterilisation in autoclave, the medium was balanced at the temperature of 48° C. and added with horse blood at the concentration of 6.6% (33% higher than the final concentration of the assay). 15 ml aliquots of M-Ha medium+blood were transferred into 50 ml falcon test tubes maintained at 48° C., added with 5 ml of the dilutions of the substances to be assayed, mixed, poured into Petri dishes and left to solidify. Twenty-five bacterial inoculums, each with approximate volume of about 5 μl and containing about 10^5 ufc, were deposited on the surface of the M-Ha medium+blood of each plate. After incubation at 37° C. for 18 hours the minimum inhibitory concentration (MIC) defined as the minimum concentration of substance capable of inhibiting a bacterial growth noticeable to the naked eye at the area of deposition of the inoculums was read.
In the test with Streptococcus agalactiae the minimum inhibitory concentrations in the assay in liquid medium, regarding which only the bactericide minimum concentration values are indicated, could not be determined with sufficient reliability due to the turbidity of the solutions containing the substances. “Determination of the Minimum Inhibitory Concentration on Agarised Medium” was carried out to obtain the MIC values.

[5] = "Mother" concentration: highest concentration at which complete solubilisation could be obtained; format: physicochemical; settings: propylene glycol 30% in water, aqueous with cosolvent or surfactant or cyclodextrin; solvent prop glycol 30% in water; read-out: "mother" conc. (highest concentration at which complete solubilisation could be obtained)
Method: The substances to be subjected to the analysis were prepared for the assay through dilution and sterilisation as described hereinafter.
The concentration of the substances referred to as “mother” represents the highest concentration at which complete solubilisation could be obtained and it is […] than the highest concentration assayed in the test.

[6] = test system: Candida albicans ATCC 10231; assay: MIC against Candida albicans; format: cell-based; settings: substance alone
Method: as §2, §3, §4
Subsequently, 50 μl of diluted bacterial inoculum as specified previously were deposited in all wells of the plate, except for the 11th of each row. Only the liquid medium at single concentration but bacteria-free, was deposited in the 11th well, with the aim of providing negative control for each row. The described scheme was used for the assay with each of the assayed microbial strains.
After incubation at the conditions indicated regarding each micro-organism, the microtitre plates were examined to verify, in each well, the presence or absence of bacterial growth. The minimum inhibitory concentration is defined as the lowest concentration of the substance still capable of inhibiting bacterial growth i.e. preventing the liquid from becoming turbid within the well.

[7] = test system: Candida albicans ATCC 10231; assay: MBC against Candida albicans; format: cell-based; settings: substance alone
Method: as §1, with “The Gardnerella vaginalis ATCC 14018 strain, the Neisseria gonorrhoeae ATCC 43069 strain and the Candida albicans ATCC 10231 strain were also used for the experiment. [table] The other assayed microbial strains were cultured in the liquid media and in the incubation conditions specified in table A, following the operating procedure described above. Immediately” for “Immediately”

[8] = test system: Gardnerella vaginalis ATCC 14018; assay: MIC against Gardnerella vaginalis; format: cell-based; settings: substance alone
Method: as §2, §3, §4, §5

[9] = test system: Gardnerella vaginalis ATCC 14018; assay: MBC against Gardnerella vaginalis; format: cell-based; settings: substance alone
Method: as §1, with “The Gardnerella vaginalis ATCC 14018 strain, the Neisseria gonorrhoeae ATCC 43069 strain and the Candida albicans ATCC 10231 strain were also used for the experiment. [table] The other assayed microbial strains were cultured in the liquid media and in the incubation conditions specified in table A, following the operating procedure described above. Immediately” for “Immediately”

[10] = ATCC 12386 in M-Hb blood 2%, substance alone
[11] = Strain 2 in M-Hb blood 2%, substance alone
[12] = Strain 10 in M-Hb blood 2%, substance alone
[13] = Strain 11 in M-Hb blood 2%, substance alone

Compound | MBC (Streptococcus agalactiae [1]; [10]) | MBC (Streptococcus agalactiae [1]; [11]) | MBC (Streptococcus agalactiae [1]; [12]) | MBC (Streptococcus agalactiae [1]; [13]) | MIC (minimum inhibiting concentration) (Streptococcus agalactiae [4]; strain 2, substance alone) | MIC (minimum inhibiting concentration) (Streptococcus agalactiae [4]; strain 5, substance alone) | MIC (minimum inhibiting concentration) (Streptococcus agalactiae [4]; strain 6, substance alone) | MIC (minimum inhibiting concentration) (Streptococcus agalactiae [4]; strain 7, substance alone) | MIC (minimum inhibiting concentration) (Streptococcus agalactiae [4]; strain 8, substance alone) | MIC (minimum inhibiting concentration) (Streptococcus agalactiae [4]; strain 9, substance alone) | MIC (minimum inhibiting concentration) (Streptococcus agalactiae [4]; strain 10, substance alone) | MIC (minimum inhibiting concentration) (Streptococcus agalactiae [4]; strain 11, substance alone) | MIC (minimum inhibiting concentration) (Streptococcus agalactiae [4]; strain 12, substance alone) | MIC (minimum inhibiting concentration) (Streptococcus agalactiae [4]; strain 13, substance alone) | MIC (minimum inhibiting concentration) (Streptococcus agalactiae [4]; strain 14, substance alone) | MIC (minimum inhibiting concentration) (Streptococcus agalactiae [4]; strain 15, substance alone) | MIC (minimum inhibiting concentration) (Streptococcus agalactiae [4]; strain 16, substance alone) | MIC (minimum inhibiting concentration) (Streptococcus agalactiae [4]; strain 17, substance alone) | MIC (minimum inhibiting concentration) (Streptococcus agalactiae [4]; strain 18, substance alone) | MIC (minimum inhibiting concentration) (Streptococcus agalactiae [4]; strain 19, substance alone) | further results
CC1(C)S[C@@H]2[C@H](NC(=O)[C@H](N)c3ccccc3)C(=O)N2[C@H]1C(=O)O [Ampicillin, reference compound] | – | – | – | – | – | – | – | – | – | – | – | – | – | – | – | – | – | – | – | – | MBC (Streptococcus agalactiae [1]; Streptococcus agalactiae, ATCC12386, ATCC 12386 in M-Hb blood 2%, reference antibiotic, read-out: MBC): 0.5 µg/mL (≈ 1.43 µM); MBC (Streptococcus agalactiae [1]; Streptococcus agalactiae, Strain 2 in M-Hb blood 2%, reference antibiotic, read-out: MBC): < 0.06 µg/mL; MBC (Streptococcus agalactiae [1]; Streptococcus agalactiae, Strain 10 in M-Hb blood 2%, reference antibiotic, read-out: MBC): 1 µg/mL (≈ 2.86 µM); MBC (Streptococcus agalactiae [1]; Streptococcus agalactiae, Strain 11 in M-Hb blood 2%, reference antibiotic, read-out: MBC): < 0.06 µg/mL; concentrations required to perform the bactericidal action, times higher in strain 10 than against strain 2 and 11 (Streptococcus agalactiae [1]; strain 10 versus strains 2 and 11): at least 15 times; MBC [2]: ≦0.000012%; MIC [3]: ≦0.000012%
CCCCCCCCCCCC(=O)O [F, lauric acid] | 0.25 | ≧0.25 | ≧0.25 | 0.25 | 0.25% | 0.25% | 0.25% | 0.25% | 0.25% | 0.25% | 0.25% | 0.25% | 0.25% | 0.25% | 0.25% | 0.25% | 0.25% | 0.25% | 0.25% | 0.25% | MIC (minimum inhibiting concentration) (Streptococcus agalactiae [4]; strain 20, substance alone): 0.25%; MIC (minimum inhibiting concentration) (Streptococcus agalactiae [4]; strain 21, substance alone): 0.25%; MIC (minimum inhibiting concentration) (Streptococcus agalactiae [4]; strain 22, substance alone): 0.25%; MIC (minimum inhibiting concentration) (Streptococcus agalactiae [4]; strain 23, substance alone): 0.25%; MIC (minimum inhibiting concentration) (Streptococcus agalactiae [4]; strain 24, substance alone): 0.25%; MIC (minimum inhibiting concentration) (Streptococcus agalactiae [4]; strain 25, substance alone): 0.25%; MIC (minimum inhibiting concentration) (Streptococcus agalactiae [4]; strain 12386, substance alone): 0.25%; MIC (minimum inhibiting concentration) (Streptococcus agalactiae [4]; strain 12403, substance alone): 0.25%; MIC (minimum inhibiting concentration) (Streptococcus agalactiae [4]; strain 27956, substance alone): 0.25%; solubility [5]: 10.1 mg/mL (≈ 50300 µM)
CCCCCCCCCCCC(=O)OCC(O)CO (stereo not drawn) [G, monolaurate] | 0.107 | 0.107 | 0.428 | 0.107 | 0.11% | 0.11% | 0.11% | 0.11% | 0.22% | 0.11% | 0.22% | 0.11% | 0.11% | 0.11% | 0.11% | 0.11% | 0.11% | 0.11% | 0.22% | 0.11% | MIC (minimum inhibiting concentration) (Streptococcus agalactiae [4]; strain 20, substance alone): 0.11%; MIC (minimum inhibiting concentration) (Streptococcus agalactiae [4]; strain 21, substance alone): 0.11%; MIC (minimum inhibiting concentration) (Streptococcus agalactiae [4]; strain 22, substance alone): 0.11%; MIC (minimum inhibiting concentration) (Streptococcus agalactiae [4]; strain 23, substance alone): 0.11%; MIC (minimum inhibiting concentration) (Streptococcus agalactiae [4]; strain 24, substance alone): 0.11%; MIC (minimum inhibiting concentration) (Streptococcus agalactiae [4]; strain 25, substance alone): 0.11%; MIC (minimum inhibiting concentration) (Streptococcus agalactiae [4]; strain 12386, substance alone): 0.11%; MIC (minimum inhibiting concentration) (Streptococcus agalactiae [4]; strain 12403, substance alone): 0.11%; MIC (minimum inhibiting concentration) (Streptococcus agalactiae [4]; strain 27956, substance alone): 0.11%
Clc1ccc(COC(Cn2ccnc2)c2ccc(Cl)cc2Cl)cc1 (stereo not drawn) [econazole] | – | – | – | – | – | – | – | – | – | – | – | – | – | – | – | – | – | – | – | – | MIC [6]: 0.000025%; MBC [7]: 0.0008%
Cc1ncc([N+](=O)[O-])n1CCO [metronidazole, reference compound] | – | – | – | – | – | – | – | – | – | – | – | – | – | – | – | – | – | – | – | – | MIC [8]: 0.0004%; MBC [9]: 0.0008%
Clc1ccc(COC(Cn2ccnc2)c2ccc(Cl)cc2Cl)c(Cl)c1 (stereo not drawn) [miconazole] | – | – | – | – | – | – | – | – | – | – | – | – | – | – | – | – | – | – | – | – | MIC [6]: 0.000012%; MBC [7]: 0.0008%
